The values below are quoted from earlier work in US6045829A, “Nanocrystalline formulations of human immunodeficiency virus (HIV) protease inhibitors using cellulosic surface stabilizers” (Elan Pharma International Limited, priority 1997, dated 2000).

Where two headings read alike, the source gives them in different places.

Data set [1] deals with HIV reverse transcriptase (RT). As to conditions: for effectiveness in treating HIV infection: in vivo; for side effects: interfere with cellular enzymes similar to the HIV viral enzyme.

Consider `O[C@H](CS)[C@H](O)CS` (racemic) [ddT, dithiothreitol], for which, in data set [1], the “effectiveness in treating HIV infection” value is “only modestly effective” and the side effects entry is “severe side effects”.
On to `CC(C)c1nc(CN(C)C(=O)N[C@H](C(=O)N[C@@H](Cc2ccccc2)C[C@H](O)[C@H](Cc2ccccc2)NC(=O)OCc2cncs2)C(C)C)cs1` [ABT-538], for which the oral bioavailability result (in vivo, po) is given as “low oral bioavailability”.
In the case of `Cc1c(O)cccc1C(=O)N[C@@H](CSc1ccccc1)[C@H](O)CN1C[C@H]2CCCC[C@H]2C[C@H]1C(=O)NC(C)(C)C` [AG1343], the oral bioavailability result (in vivo, po) is reported as “low oral bioavailability”.
On to `Cc1cn([C@H]2C[C@H](N=[N+]=[N-])[C@@H](CO)O2)c(=O)[nH]c1=O` [AZT, azidothymidine], for which the side effects entry in data set [1] is recorded as “severe side effects”.
Take `Nc1cccc(CN2C(=O)N(Cc3cccc(N)c3)[C@H](Cc3ccccc3)[C@H](O)[C@@H](O)[C@H]2Cc2ccccc2)c1` [DMP-450]: the oral bioavailability entry (in vivo, po) is “low oral bioavailability”.
In the case of `CSC[C@H](NC(=O)COc1cccc2cnccc12)C(=O)N[C@@H](Cc1ccccc1)[C@H](O)C(=O)N1CSC[C@H]1C(=O)NC(C)(C)C` [KNI-272], where the note is “oral”, the oral bioavailability result is reported as “low oral bioavailability”.
With `CC(C)(C)NC(=O)[C@@H]1CN(Cc2cccnc2)CCN1C[C@@H](O)C[C@@H](Cc1ccccc1)C(=O)N[C@H]1c2ccccc2C[C@H]1O` [MK-639, N-(2-(R)-hydroxy-1(S)-indanyl)-2(R)-phenylmethyl-4-(S)-hydroxy-5-(1-(4-(3-pyridylmethyl)-2(S)-N'-(t-butylcarboxamido)-piperazinyl))-pentaneamide], the oral bioavailability result (in vivo, po) is listed as “low oral bioavailability”.
`N#Cc1ccc(S(=O)(=O)Nc2cccc(C(c3c(O)c4c(oc3=O)CCCCCC4)C3CC3)c2)cc1` (stereo not shown) [U-103,017]: the oral bioavailability entry (oral) is “low oral bioavailability”.
Consider `CC(C)CN(C[C@@H](O)[C@H](Cc1ccccc1)NC(=O)O[C@H]1CCOC1)S(=O)(=O)c1ccc(N)cc1` [VX-478], for which the oral bioavailability result (in vivo, po) is given as “low oral bioavailability”.
On to `O=c1[nH]cnc2c1ncn2[C@H]1CC[C@@H](CO)O1` [ddI, didanosine], for which, in data set [1], the “effectiveness in treating HIV infection” value is “only modestly effective” and the side effects result is “severe side effects”.
For `CC(C)(C)NC(=O)[C@@H]1C[C@@H]2CCCC[C@@H]2CN1C[C@@H](O)[C@H](Cc1ccccc1)NC(=O)[C@H](CC(N)=O)NC(=O)c1ccc2ccccc2n1` [saquinavir], under “in vivo, po”, the oral bioavailability result is on record as “low oral bioavailability”.
